Test results as given in PubChem BioAssay (NCI).
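48-hour exposure; five concentrations; linearly interpolated endpoints. TGI denotes the concentration required for complete inhibition of growth.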

Experiments:
Test in all cases: NCI tumour cell line growth inhibition, 48 h
COLO 205 colon = tested on: COLO 205 colon
RXF 393 renal = tested on: RXF 393 renal
OVCAR-4 ovarian = tested on: OVCAR-4 ovarian
HCT-116 colon = tested on: HCT-116 colon
HL-60(TB) leukemia = tested on: HL-60(TB) leukemia
U251 CNS = tested on: U251 CNS
RPMI-8226 leukemia = tested on: RPMI-8226 leukemia
NCI-H460 lung = tested on: NCI-H460 lung
A498 renal = tested on: A498 renal
SF-539 CNS = tested on: SF-539 CNS
SK-MEL-28 melanoma = tested on: SK-MEL-28 melanoma
DMS 114 small cell lung = tested on: DMS 114 small cell lung
UACC-62 melanoma = tested on: UACC-62 melanoma
SW-620 colon = tested on: SW-620 colon
UACC-257 melanoma = tested on: UACC-257 melanoma
NCI-H522 lung = tested on: NCI-H522 lung
SK-OV-3 ovarian = tested on: SK-OV-3 ovarian
OVCAR-8 ovarian = tested on: OVCAR-8 ovarian
M14 melanoma = tested on: M14 melanoma
RXF-631 renal = tested on: RXF-631 renal
HOP-18 NSCLC = tested on: HOP-18 NSCLC
MOLT-4 leukemia = tested on: MOLT-4 leukemia
SN12C renal = tested on: SN12C renal
SNB-78 CNS = tested on: SNB-78 CNS
SK-MEL-5 melanoma = tested on: SK-MEL-5 melanoma
MALME-3M melanoma = tested on: MALME-3M melanoma
ACHN renal = tested on: ACHN renal
UO-31 renal = tested on: UO-31 renal
HOP-92 NSCLC = tested on: HOP-92 NSCLC
786-0 renal = tested on: 786-0 renal
KM12 colon = tested on: KM12 colon
NCI-H226 lung = tested on: NCI-H226 lung
SK-MEL-2 melanoma = tested on: SK-MEL-2 melanoma
DMS 273 small cell lung = tested on: DMS 273 small cell lung
DLD-1 colon = tested on: DLD-1 colon
LOX IMVI melanoma = tested on: LOX IMVI melanoma
SF-295 CNS = tested on: SF-295 CNS
HCC-2998 colon = tested on: HCC-2998 colon
IGROV1 ovarian = tested on: IGROV1 ovarian
LXFL 529 NSCLC = tested on: LXFL 529 NSCLC
HT29 colon = tested on: HT29 colon
HOP-62 NSCLC = tested on: HOP-62 NSCLC
SNB-19 CNS = tested on: SNB-19 CNS
SNB-75 CNS = tested on: SNB-75 CNS
CCRF-CEM leukemia = tested on: CCRF-CEM leukemia
A549 NSCLC = tested on: A549 NSCLC
SF-268 CNS = tested on: SF-268 CNS
NCI-H23 lung = tested on: NCI-H23 lung
OVCAR-5 ovarian = tested on: OVCAR-5 ovarian
HCT-15 colon = tested on: HCT-15 colon
K-562 leukemia = tested on: K-562 leukemia
SR leukemia = tested on: SR leukemia
OVCAR-3 ovarian = tested on: OVCAR-3 ovarian
EKVX NSCLC = tested on: EKVX NSCLC
KM20L2 colon = tested on: KM20L2 colon
CAKI-1 renal = tested on: CAKI-1 renal
TK-10 renal = tested on: TK-10 renal
M19-MEL melanoma = tested on: M19-MEL melanoma

Measured: TGI

Cc1ccc(N=Nc2c(-c3ccccc3)nn(C(=O)CC(=O)Nc3ccc(Cl)cc3)c2-c2ccccc2)cc1
94.9 µM: A498 renal
94.5 µM: LXFL 529 NSCLC
99.6 µM: RXF 393 renal | OVCAR-3 ovarian
72.5 µM: CCRF-CEM leukemia
18.3 µM: EKVX NSCLC
79.1 µM: MOLT-4 leukemia
86.7 µM: RPMI-8226 leukemia
73.5 µM: SNB-75 CNS
66.9 µM: HOP-92 NSCLC
86.3 µM: UO-31 renal
57.3 µM: SR leukemia
not listed: TK-10 renal | M19-MEL melanoma
> 100 µM: all other assays above

CC1=C(/C=C/C(C)=C/C=C/C(C)=C/C=C/C=C(C)/C=C/C=C(C)/C=C/C=C(C)/C=C/C=C(\C)C(=O)O)C(C)(C)CCC1
not listed: HL-60(TB) leukemia | HOP-92 NSCLC | LOX IMVI melanoma | HCC-2998 colon | SR leukemia | M19-MEL melanoma
> 100 µM: all other assays above

CCOC(=O)C1=NC(c2ccccc2)(c2ccccc2)OC1=C(Cl)Cl
34.8 µM: HL-60(TB) leukemia
57.4 µM: HCC-2998 colon
12.5 µM: RXF 393 renal
not listed: DMS 114 small cell lung | SK-MEL-2 melanoma | DMS 273 small cell lung
> 100 µM: all other assays above
